Measurements taken from PMC3426641 (Biochemistry, 2012).
Like-named read-outs stand apart in the source and are kept apart here.

How the values were obtained:
Eis_Msm [1] = target: T1, Eis_Msm (Mycobacterium smegmatis, UniProt A0QY29); test: Number of acetylations of AGs by Eis_Msm; type: biochemical; conditions: number of acetylations per AG; UV-Vis assay and LCMS, 25 °C, pH 8.0
Eis_Msm [2] = target: T1, Eis_Msm
Eis_Msm [3] = target: T1, Eis_Msm; test: biochemical
Eis_Mtb [4] = target: T2, Eis_Mtb (Mycobacterium tuberculosis, UniProt P9WFK7); test: biochemical
Eis_Mtb [5] = target: T2, Eis_Mtb
Eis_Msm [6] = target: T1, Eis_Msm; test: Inhibition of Eis_Msm NEO acetylation; type: biochemical; conditions: for mode of inhibition: Eis_Msm, against NEO
Eis_Mtb [7] = target: T2, Eis_Mtb; test: Inhibition of Eis_Mtb NEO acetylation; type: biochemical
[8] = system: CCN[C@@H]1C[C@H](N)[C@@H](O[C@H]2OC(CN)=CC[C@H]2N)[C@H](O)[C@H]1O[C@H]1OC[C@](C)(O)[C@H](NC)[C@H]1O; test: purified protein, by the assay type; conditions: other: Eis_Msm, pH 8.0
[9] = system: CN[C@@H]1[C@@H](O)[C@@H](O[C@@H]2[C@@H](O)[C@H](O[C@H]3OC(CN)=CC[C@H]3N)[C@@H](N)C[C@H]2N)OC[C@]1(C)O; test: purified protein, by the assay type; conditions: other: Eis_Msm, pH 8.0
[10] = system: NCC[C@H](O)C(=O)N[C@@H]1C[C@H](N)[C@@H](O[C@H]2O[C@H](CN)[C@@H](O)[C@H](O)[C@H]2O)[C@H](O)[C@H]1O[C@H]1O[C@H](CO)[C@@H](O)[C@H](N)[C@H]1O; test: purified protein, by the assay type; conditions: pH 8.0
[11] = system: NC[C@@H]1O[C@H](O[C@H]2[C@@H](O)[C@H](O[C@@H]3[C@@H](O)[C@H](N)C[C@H](N)[C@H]3O[C@H]3O[C@H](CN)[C@@H](O)[C@H](O)[C@H]3N)O[C@@H]2CO)[C@H](N)[C@@H](O)[C@@H]1O; test: purified protein, by the assay type; conditions: other: Eis_Msm, pH 8.0
[12] = system: NC[C@@H]1O[C@H](O[C@H]2[C@@H](O)[C@H](O[C@@H]3[C@@H](O)[C@H](N)C[C@H](N)[C@H]3O[C@H]3O[C@H](CO)[C@@H](O)[C@H](O)[C@H]3N)O[C@@H]2CO)[C@H](N)[C@@H](O)[C@@H]1O; test: purified protein, by the assay type; conditions: other: Eis_Msm, fixed AcCoA 0.1 mM, varying AG, 25 °C, pH 8.0
[13] = system: NC[C@H]1O[C@H](O[C@H]2[C@H](O)[C@@H](O)[C@H](N)C[C@@H]2N)[C@H](N)[C@@H](O)[C@@H]1O; test: purified protein, by the assay type; conditions: pH 8.0
[14] = system: NC[C@H]1O[C@H](O[C@H]2[C@H](O)[C@@H](O[C@H]3O[C@H](CO)[C@@H](O)[C@H](N)[C@H]3O)[C@H](N)C[C@@H]2N)[C@H](N)C[C@@H]1O; test: purified protein, by the assay type; conditions: pH 8.0
[15] = Eis_Msm, fixed AG 0.5 mM, varying AcCoA, 25 °C, pH 8.0
[16] = fixed AcCoA 0.1 mM, varying AG, 25 °C
[17] = random sequential mechanism, 25.0 °C
[18] = other: Eis_Msm, fixed AcCoA 0.1 mM, varying AG, 25 °C

T2 sequence (P9WFK7 whole entry): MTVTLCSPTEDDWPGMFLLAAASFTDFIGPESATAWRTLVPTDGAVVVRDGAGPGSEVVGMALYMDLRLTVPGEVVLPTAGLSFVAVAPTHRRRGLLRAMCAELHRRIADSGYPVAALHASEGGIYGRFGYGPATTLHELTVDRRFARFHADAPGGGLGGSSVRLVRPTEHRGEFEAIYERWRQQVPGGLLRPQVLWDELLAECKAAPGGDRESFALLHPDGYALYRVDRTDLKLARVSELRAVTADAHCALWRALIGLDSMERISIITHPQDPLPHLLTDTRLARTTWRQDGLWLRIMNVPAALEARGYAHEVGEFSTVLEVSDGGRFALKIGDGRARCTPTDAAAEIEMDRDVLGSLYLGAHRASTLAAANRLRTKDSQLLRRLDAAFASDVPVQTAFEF

NCC[C@H](O)C(=O)N[C@@H]1C[C@H](N)[C@@H](O[C@H]2O[C@H](CN)[C@@H](O)[C@H](O)[C@H]2O)[C@H](O)[C@H]1O[C@H]1O[C@H](CO)[C@@H](O)[C@H](N)[C@H]1O [AMK, amikacin]
level of acetylation by Eis from M. smegmatis (Eis_Msm [1]): tri-acetylated
kcat,AcCoA (Eis_Msm [2]; [15]): 0.142 ± 0.026 s⁻¹
Kd (Eis_Msm [3]): > 1000 µM
Kd (Eis_Mtb [4]): 32 ± 14 µM

CN[C@@H]1[C@@H](O[C@H]2O[C@H](CO)[C@@H](N)[C@H](O)[C@H]2O)OC2C[C@@H](N)[C@@H](O[C@H]3[C@H](O)[C@@H](O)[C@H](N)C[C@@H]3N)OC2[C@@H]1O (stereo partly shown) [APR, apramycin]
level of acetylation by Eis from M. smegmatis (Eis_Msm [1]): di-acetylated

CC(=O)SCCNC(=O)CCNC(=O)[C@H](O)C(C)(C)COP(=O)(O)OP(=O)(O)OC[C@H]1O[C@@H](n2cnc3c(N)ncnc32)[C@H](O)[C@@H]1OP(=O)(O)O [AcCoA, acetyl-coenzyme A]
Kd,AcCoA(E) fold smaller than Kd,AcCoA(E•AG) (Eis_Msm [2]; Eis_Msm, AG = KAN): approximately 17 fold

CN[C@@H]1C[C@H](N)[C@@H](O)[C@H](O[C@H]2O[C@H](CO)[C@H](O)[C@@H]3O[C@@]4(O[C@@H]23)O[C@H]([C@H](N)CO)[C@H](O)[C@H](O)[C@H]4O)[C@H]1O [HYG, hygromycin]
level of acetylation by Eis from M. smegmatis (Eis_Msm [1]): mono-acetylated

NC[C@H]1O[C@H](O[C@H]2[C@H](O)[C@@H](O)[C@H](N)C[C@@H]2N)[C@H](N)[C@@H](O)[C@@H]1O [NEA, neamine]
level of acetylation by Eis from M. smegmatis (Eis_Msm [1]): tri-acetylated
Kd (Eis_Msm [3]): 141 ± 60 µM
Kd (Eis_Mtb [4]): 95 ± 50 µM

NC[C@@H]1O[C@H](O[C@H]2[C@@H](O)[C@H](O[C@@H]3[C@@H](O)[C@H](N)C[C@H](N)[C@H]3O[C@H]3O[C@H](CN)[C@@H](O)[C@H](O)[C@H]3N)O[C@@H]2CO)[C@H](N)[C@@H](O)[C@@H]1O [NEO, neomycin B]
level of acetylation by Eis from M. smegmatis (Eis_Msm [1]): tri-acetylated
kcat,AcCoA (Eis_Msm [2]; 25 °C, pH 8.0): 0.546 ± 0.065 s⁻¹
Kd (Eis_Msm [3]): > 1000 µM
Kd (Eis_Mtb [4]): 75 ± 41 µM

CCN[C@@H]1C[C@H](N)[C@@H](O[C@H]2OC(CN)=CC[C@H]2N)[C@H](O)[C@H]1O[C@H]1OC[C@](C)(O)[C@H](NC)[C@H]1O [NET, netilmicin]
level of acetylation by Eis from M. smegmatis (Eis_Msm [1]): di-acetylated
kcat,AcCoA (Eis_Msm [2]; [15]): 0.819 ± 0.121 s⁻¹
Kd (Eis_Msm [3]): 108 ± 35 µM
Kd (Eis_Mtb [4]): 31 ± 10 µM

NC[C@@H]1O[C@H](O[C@H]2[C@@H](O)[C@H](O[C@@H]3[C@@H](O)[C@H](N)C[C@H](N)[C@H]3O[C@H]3O[C@H](CO)[C@@H](O)[C@H](O)[C@H]3N)O[C@@H]2CO)[C@H](N)[C@@H](O)[C@@H]1O [PAR, paromomycin]
level of acetylation by Eis from M. smegmatis (Eis_Msm [1]): tri-acetylated
kcat,AG (Eis_Mtb [5]): 0.15 ± 0.01 s⁻¹
Km (Eis_Mtb [5]; read-out: Km,AG): 96 ± 20 µM

NC[C@H]1O[C@H](O[C@H]2[C@H](O[C@@H]3O[C@H](CO)[C@@H](O)[C@H]3O)[C@@H](O)[C@H](N)C[C@@H]2N)[C@H](N)[C@@H](O)[C@@H]1O [RIB, ribostamycin]
level of acetylation by Eis from M. smegmatis (Eis_Msm [1]): tri-acetylated

CN[C@@H]1[C@@H](O)[C@@H](O[C@@H]2[C@@H](O)[C@H](O[C@H]3OC(CN)=CC[C@H]3N)[C@@H](N)C[C@H]2N)OC[C@]1(C)O [SIS, sisomicin]
level of acetylation by Eis from M. smegmatis (Eis_Msm [1]): tri-acetylated
kcat,AcCoA (Eis_Msm [2]; 25 °C, pH 8.0): 0.620 ± 0.063 s⁻¹
Kd (Eis_Msm [3]): 179 ± 54 µM
Kd (Eis_Mtb [4]): 340 ± 140 µM

CN[C@@H]1[C@H](O)[C@H](NC)[C@H]2O[C@@]3(O)C(=O)C[C@@H](C)O[C@H]3O[C@@H]2[C@H]1O [SPT, spectinomycin]
level of acetylation by Eis from M. smegmatis (Eis_Msm [1]): not modified

[H]/N=C(/N)N[C@H]1[C@H](O)[C@@H](O)[C@H](O[C@@H]2O[C@@H](C)[C@](O)(C=O)[C@H]2O[C@@H]2O[C@@H](CO)[C@H](O)[C@@H](O)[C@@H]2NC)[C@@H](N/C(N)=N\[H])[C@@H]1O [STR, streptomycin]
level of acetylation by Eis from M. smegmatis (Eis_Msm [1]): not modified

NC[C@H]1O[C@H](O[C@H]2[C@H](O)[C@@H](O[C@H]3O[C@H](CO)[C@@H](O)[C@H](N)[C@H]3O)[C@H](N)C[C@@H]2N)[C@H](N)C[C@@H]1O [TOB, tobramycin]
level of acetylation by Eis from M. smegmatis (Eis_Msm [1]): tetra-acetylated

[H]/N=C(\N/C(=N/[H])NCCCCCCNC(=N)NC(=N)Nc1ccc(Cl)cc1)Nc1ccc(Cl)cc1 [chlorhexidine (1), chlorhexidine]
IC50 (Eis_Msm [6]): 1.85 µM
Ki (Eis_Msm [6]): 0.47 ± 0.15 µM
mode of inhibition (Eis_Msm [6]; listed as 1): AG-competitive mode
mode of inhibition (Eis_Msm [6]; listed as Chlorhexidine (1)): competitive inhibitor of NEO
Ki (Eis_Mtb [7]): 0.105 ± 0.024 µM

Eis_Msm (Mycolicibacterium smegmatis MC2 155)
Km [8, 16]: 197 ± 30 µM
kcat [8, 16]: 0.835 ± 0.057 s⁻¹
kcat [8, 17]: 1 ± 0.4 s⁻¹
Km [9, 16]: 82 ± 8 µM
kcat [9, 16]: 0.206 ± 0.006 s⁻¹
kcat [9, 17]: 0.85 ± 0.25 s⁻¹
Km [10, 18]: 251 ± 55 µM
kcat ([10]; other: Eis_Msm, random sequential mechanism, 25.0 °C): > 0.3 s⁻¹
Km [11, 16]: 314 ± 77 µM
kcat [11, 17]: > 1 s⁻¹
Km [12]: 153 ± 55 µM
kcat [12]: 0.035 ± 0.006 s⁻¹
Km [13, 18]: 359 ± 101 µM
kcat [13, 18]: 0.176 ± 0.027 s⁻¹
Km [14, 18]: 131 ± 22 µM
kcat [14, 18]: 0.267 ± 0.016 s⁻¹

Eis_Mtb (Mycobacterium tuberculosis H37Rv)
Km ([10]; 25.0 °C): 113 ± 35 µM
kcat ([10]; 25.0 °C): 0.03 ± 0.004 s⁻¹
Km ([13]; 25.0 °C): 137 ± 57 µM
kcat ([13]; 25.0 °C): 0.064 ± 0.01 s⁻¹
Km ([14]; 25.0 °C): 116 ± 17 µM
kcat ([14]; 25.0 °C): 0.21 ± 0.01 s⁻¹

kanamycin A
level of acetylation by Eis from M. smegmatis (Eis_Msm [1]): di-acetylated
kcat,AcCoA (Eis_Msm [2]; [15]): 0.398 ± 0.060 s⁻¹
kcat,AG (Eis_Msm [2]; Eis_Msm, fixed AcCoA 0.1 mM, varying AG, 25 °C, pH 8.0): 0.108 ± 0.005 s⁻¹
kcat (microscopic rate constant of acetylation) (Eis_Mtb [5]): 0.16 ± 0.07 s⁻¹
kcat,AcCoA (Eis_Mtb [5]): 0.094 ± 0.004 s⁻¹
